Data on eleven compounds can be found in patent publication US11065249B2, “Diacylglycerol acyl transferase 2 inhibitor” (Pfizer Inc., priority 2019, dated 2021).

The test system of one data set is human hepatocytes. Nature of the data set: High throughput determination of intrinsic clearance in human hepatocytes. The following applies: high throughput human hepatocyte assay, 1 μM test compound; mean +/− Std Dev. It is filed as in vitro ADME. How it is done: (§1) The incubation was carried out at 37° C. […] The samples were centrifuged (Eppendorf, Hauppauge, N.Y.) at 3000 rpm for 5 min at 4° C.

The nature of data set [1]: Intrinsic clearance in human liver microsomes. It is filed as in vitro ADME. The following applies: 1 μM test compound, mean +/− STD Dev; for CLint (+/−STD Dev): human liver microsome assay; for microsomal CLint at 1 μM: human, pooled human liver microsomes, pH 7.4, human liver microsome assay. Here is the method: The incubations were conducted at 37° C. […] (Sorvall R C 3C Plus, Thermo Scientific, Waltham, Mass.).
In general terms: Liver microsomes are vesicles of endoplasmic reticulum, rich in cytochrome P450 enzymes.

Data set [2] can be described thus: Determination of pKa (capillary electrophoresis, Analiza). It counts as physicochemical. The following applies: most basic pKa, mean.
The target in the next data set is human DGAT2 (hDGAT2) (Homo sapiens (Human), UniProt Q96PD7). As to the kind of experiment: In vitro DGAT2 assay, determination of IC50 values for DGAT2 inhibitors. It counts as biochemical. The following applies: inhibition of DGAT2, hDGAT2 membrane fractions; geometric mean. Here is the method:
Recombinant baculovirus for the FLAG-tagged hDGAT2 was generated in SF9 insect cells using Bac-to-Bac baculovirus expression system (Invitrogen) according to the manufacturer's protocol. For the expression of hDGAT2, SF9 cells (20 L) grown in Sf900II media were infected with hDGAT2 baculovirus at a multiplicity of infection of 1 in a Wave Bioreactor System 20/50P wave bag (GE Healthcare). After 40 hours of infection, the cells were then harvested by centrifugation at 5,000×g. The cell pellets were washed by resuspending in phosphate buffered saline (PBS) and collected by centrifugation at 5,000×g. The cell paste was flash frozen in liquid N2 and stored at −80° C. until needed. All operations below were at 4° C. unless otherwise noted. The cells were resuspended in lysis buffer (50 mM Tris-HCl, pH 8.0, 250 mM sucrose) including 1 mM ethylenediaminetetraacetic acid (EDTA) and the complete protease inhibitor cocktail (Roche Diagnostics) at a ratio of 3 mL buffer per 1 g cell paste. The cells were lysed by dounce homogenizer. The cell debris was removed by centrifugation at 1,000×g for 20 min, and the supernatant was centrifuged at 100,000×g for 1 hour. The resulting pellet was rinsed three times by filling ultracentrifuge tubes to the top with ice cold PBS before decanting. The washed pellet was resuspended with gentle stirring for 1 hour in lysis buffer containing 8 mM 3-[(3-cholamidopropyl)dimethylammonio]-1-propanesulfonate (CHAPS) at a ratio of 1 mL buffer per 1 g of original cell paste and centrifuged again at 100,000×g for 1 hour. The resulting supernatant was aliquotted, flash frozen in liquid N2, and stored at −80° C. until use.
To 1 μL of compounds dissolved in 100% DMSO and spotted at the bottom of each well, 5 μL of 0.04% bovine serum albumin (BSA) (fatty acid free, Sigma Aldrich) was added and the mixture was incubated at room temperature for 15 minutes. hDGAT2 membrane fractions were diluted in 100 mM Hepes-NaOH, pH 7.4, 20 mM MgCl2 containing 200 nM methyl arachidonyl fluorophosphonate (Cayman Chemical, dried from ethyl acetate stock solution under argon gas and dissolved in DMSO as 5 mM stock). 10 μL of this enzyme working solution was added to the plates and incubation continued for 2 hours at room temperature. DGAT2 reactions were initiated by the addition of 4 μL of substrates containing 30 μM [1-^14C]decanoyl-CoA (custom-synthesized by Perkin Elmer, 50 mCi/mmol) and 125 μM 1,2-didecanoyl-sn-glycerol (Avanti Polar Lipids) dissolved in 12.5% acetone. The reaction mixtures were incubated at room temperature for 40 min and the reactions were stopped by addition of 5 μL of 1% H3PO4. After the addition of 45 μL MicroScint-E (Perkin-Elmer), plates were sealed with Top Seal-A covers (Perkin-Elmer) and phase partitioning of substrates and products was achieved using a HT-91100 microplate orbital shaker (Big Bear Automation, Santa Clara, Calif.). Plates were centrifuged at 2,000×g for 1 minute in an Allegra 6R Centrifuge (Beckman Coulter) and then were sealed again with fresh covers before reading in a 1450 Microbeta Wallac Trilux Scintillation Counter (Perkin Elmer). DGAT2 activity was measured by quantifying the generated product [^14C]tridecanoylglycerol in the upper organic phase.
Inhibitors were tested at eleven different concentrations to generate IC50 values for each compound.

The target in data set [3] is DGAT2 in human hepatocytes (Homo sapiens (Human), UniProt Q96PD7). As to the kind of experiment: Determination of IC50 values for DGAT2 inhibitors in human hepatocytes. The following applies: inhibition of DGAT2 in human hepatocytes; geometric mean. It counts as cell-based. Here is the method:
For evaluation of the effects of DGAT2 inhibitors in a cell-based setting, cryopreserved human hepatocytes (Lot DOO, Celsis, Baltimore, Md.) were thawed and plated onto type I collagen-coated plates according to the manufacturer's instructions. After 18 hours overnight recovery period, the cells were overlayed with media containing 250 μg/mL Geltrex Basement Membrane Matrix (Thermo Fisher). The following day, media was aspirated and replaced with serum-free Williams Media E (Thermo Fisher) containing 400 μM sodium dodecanoate (Sigma-Aldrich, St. Louis, Mo.) and 2 mM GlutaMAX (Thermo Fisher). […] DGAT2 inhibitors were then added to the desired final concentration. After a 15 minute preincubation, 0.2 μCi [^14C(U)]-glycerol (Perkin Elmer) was added to each well followed by a 3 hour incubation. At this point the media was removed, and the cells lysed via orbital shaking in isopropyl alcohol:tetrahydrofuran (9:1) for 15 minutes prior to centrifugation at 3000 rpm for 10 minutes. Radiolabeled lipids were resolved using a solvent system by thin layer chromatography with the solvent consisting of hexanes:diethyl ether:glacial acetic acid (75:23:2, v/v/v). After separation, radiolabeled lipids were visualized using the Typhoon 9500 phosphorimaging system (GE). The half maximal inhibitory concentrations (IC50 values) were determined by nonlinear regression analysis of the % inhibition dose response curve using GraphPad Prism (GraphPad Software, Inc., La Jolla, Calif.).
Table 5 below provides the IC50 values of selected Examples for inhibition of DGAT2 in human hepatocytes in accordance with the above-described assay. Results are reported as geometric mean IC50 values, with the number of replicates (n) shown.

Data set [4] is described as follows: High throughput determination of intrinsic clearance in human hepatocytes. The following applies: human, pooled cryopreserved human hepatocytes (suspension), high throughput human hepatocyte assay, 1 μM test compound; mean +/− Std Dev. It counts as in vitro ADME. Here is the method: as §1
Data set [5] can be described thus: Thermodynamic solubility in various biorelevant media (PBS, SGN, FaSSIF, FeSSIF). It counts as physicochemical. How it is done: The solubility of active pharmaceutical ingredients is an important characteristic in determining biological performance and ease of formulation during drug development, with high solubility being preferred (Klein, S. 2010, The AAPS Journal, 12, 397-406; Di, L., et al 2012, Drug Disc. Today, 17.486-495). A test sample of crystalline solid (˜7 mg) was combined in a vial with 1 mL of the relevant buffer solution and the mixture vortexed to combine. If the solid dissolved completely, additional solid was added with vortexing until a saturated solution was obtained. The saturated solution/solid mixture was capped and subjected to temperature cycling as follows: 1 min at 25° C.; 8 h at 40° C.; 5 h at 15° C. and 12 h at 25° C. The mixture was filtered in a centrifugal filtration device (0.22 μm PVDF filter, MilliporeSigma, Milwaukee, Wis.) at 13,000 rpm and the concentration of the test compound in the filtrate was determined by HPLC/UPLC with reference to a three point standard curve. Phosphate buffered saline (PBS, pH 6.8, 50 mM phosphate buffer, 250 mM NaCl). Simulated gastric fluid (SGN pH 1.2, USP recipe). Fasted state simulated intestinal fluid (FaSSIF, 3 mM sodium taurocholate, 0.75 mM phospholipid from soybean lecithin, 50 mM phosphate buffer, ionic strength adjusted to 250 mM with NaCl, pH 6.8) and fed state simulated intestinal fluid (FeSSIF, 15 mM sodium taurocholate, 3.75 mM phospholipid from soybean lecithin, 144 mM acetic acid, 50 mM phosphate buffer, ionic strength adjusted to 250 mM with NaCl, pH 6.8).

Values after ≈ are worked out from the molar mass of the structure shown. Counter-ions that a name gives are not always drawn.

Chain of human DGAT2 (hDGAT2) (Q96PD7 whole entry): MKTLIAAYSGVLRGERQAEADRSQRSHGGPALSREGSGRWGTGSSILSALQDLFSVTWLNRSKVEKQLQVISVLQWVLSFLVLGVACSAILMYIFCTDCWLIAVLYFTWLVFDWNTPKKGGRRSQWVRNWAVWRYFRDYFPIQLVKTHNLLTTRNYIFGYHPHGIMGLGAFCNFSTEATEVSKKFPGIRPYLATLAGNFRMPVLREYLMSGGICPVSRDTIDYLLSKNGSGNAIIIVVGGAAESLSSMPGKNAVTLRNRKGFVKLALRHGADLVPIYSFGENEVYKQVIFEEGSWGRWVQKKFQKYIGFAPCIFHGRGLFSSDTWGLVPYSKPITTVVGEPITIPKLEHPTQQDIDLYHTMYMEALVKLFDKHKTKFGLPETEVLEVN
Chain of DGAT2 in human hepatocytes (Q96PD7 whole entry): as above

Consider `CCOc1cc(F)cnc1Oc1cncc(-c2ncc(C(=O)N[C@H]3CCOC3)cn2)c1` [WO2018033832 Ex. 8], for which, in the data set with human hepatocytes, the “CLint (+/−Std Dev)” value is 9.3 +/− 0.52 μL/min/10^6 cells. The “CLint (+/−STD Dev)” value in data set [1] was below 9.6 µL/min/mg.
The pKa is the pH at which an ionisable group is half protonated. Lower therefore signals a stronger acid or weaker base. In general, IC50 refers to the point on the concentration scale where inhibition reaches its midpoint. For the compound `CCOc1cccnc1Oc1cncc(-c2ncc(C(=O)N[C@H]3CNCCC3(F)F)cn2)c1` (single isomer, unassigned) [Example 16, N-[(3S)-4,4-difluoropiperidin-3-yl]-2-{5-[(3-ethoxypyridin-2-yl)oxy]pyridin-3-yl}pyrimidine-5-carboxamide, trifluoroacetate salt or N-[(3R)-4,4-difluoropiperidin-3-yl]-2-{5-[(3-ethoxypyridin-2-yl)oxy]pyridin-3-yl}pyrimidine-5-carboxamide, trifluoroacetate salt], in data set [1] (trifluoroacetate salt), the “CLint (+/−STD Dev)” value was found to be 17 µL/min/mg. Besides, the pKa in data set [2] amounted to 6.4. This compound also gave a concentration for half-maximal inhibition (IC50) on human DGAT2 (hDGAT2) of 0.48 µM.
One may read the hepatocyte CLint as a measure of how fast metabolising enzymes remove a compound, apart from limits set by blood flow. By microsomal CLint is commonly meant a measure of how fast metabolising enzymes remove a compound, apart from limits set by blood flow. Lower therefore signals slow turnover. The compound `CCOc1cccnc1Oc1cncc(-c2ncc(C(=O)N[C@H]3CNC[C@H](F)C3)cn2)c1` [Example 7, 2-{5-[(3-ethoxypyridin-2-yl)oxy]pyridin-3-yl}-N-[(3R,5R)-5-fluoropiperidin-3-yl]pyrimidine-5-carboxamide, trifluoroacetate salt] had an IC50 in data set [3] of 0.1 µM. Also, the hepatocyte CLint at 1 μM in data set [4] was below 1.8 µL/min/1e6 cells. The compound also showed a microsomal CLint at 1 μM in data set [1] below 7 µL/min/mg. In addition, the pKa in data set [2] turned out to be 7.5.
`CCOc1cccnc1Oc1cncc(-c2ncc(C(=O)NC3CCC(C(F)(F)F)NC3)cn2)c1` (single isomer, unassigned; ent-1) [Example 10, 2-{5-[(3-ethoxypyridin-2-yl)oxy]pyridin-3-yl}-N-[6-(trifluoromethyl)piperidin-3-yl]pyrimidine-5-carboxamide, trifluoroacetate salt, ENT-1]: in data set [4], the intrinsic clearance (hepatocyte CLint) at 1 μM came out at 27 µL/min/1e6 cells. In addition, in data set [1], the microsomal CLint at 1 μM worked out at 270 µL/min/mg. Moreover, the “Basic pKa” value in data set [2] is recorded as 4.7. Besides, on human DGAT2 (hDGAT2), the IC50 was 0.039 µM.
One may read the Solubility as how much of the substance goes into solution per volume. Take `CCOc1cccnc1Oc1cncc(-c2ncc(C(=O)N[C@H]3CCOC3)cn2)c1` [WO2018033832 Ex. 1, Form 2]: the Solubility in data set [5] (FaSSIF pH 6.8) is 93 µg/mL (≈ 228 µM); in data set [5] (PBS, pH 6.8), 60 µg/mL (≈ 147 µM); in data set [5] (SGN pH 1.2), 1082 µg/mL (≈ 2660 µM).
Regarding `CCOc1cccnc1Oc1cncc(-c2ncc(C(=O)NC3CCS(=O)(=O)C3)cn2)c1` (stereo not shown) [WO2018033832 Ex. 3.3], the “CLint (+/−Std Dev)” value in the data set on human hepatocytes was 5.1 +/− 0.69 μL/min/10^6 cells. For the same compound, in data set [1], the “CLint (+/−STD Dev)” value was below 8 µL/min/mg.
With `CCOc1cc(F)cnc1Oc1cncc(-c2ncc(C(=O)N[C@@H]3CNCC[C@@H]3F)cn2)c1` [Example 1, 2-{5-[(3-Ethoxy-5-fluoropyridin-2-yl)oxy]pyridin-3-yl}-N-[(3R,4S)-4-fluoropiperidin-3-yl]pyrimidine-5-carboxamide, bis(trifluoroacetate) salt], the “CLint (+/−Std Dev)” value in the data set with human hepatocytes is given as <2.7 +/− 0.72 μL/min/10^6 cells. Besides, the “CLint (+/−STD Dev)” value in data set [1] was below 7 µL/min/mg. In data set [2], the “Basic pKa” value stood at 7.7. 0.0058 µM corresponded to half-maximal inhibition at human DGAT2 (hDGAT2) (IC50).
Turning to `CCOc1cccnc1Oc1cncc(-c2ncc(C(=O)N[C@H]3CC[C@H](C(F)(F)F)NC3)cn2)c1` (racemic) [Example 9, rac-2-{5-[(3-ethoxypyridin-2-yl)oxy]pyridin-3-yl}-N-[(3R,6S)-6-(trifluoromethyl)piperidin-3-yl]pyrimidine-5-carboxamide or rac-2-{5-[(3-ethoxypyridin-2-yl)oxy]pyridin-3-yl}-N-[(3R,6R)-6-(trifluoromethyl)piperidin-3-yl]pyrimidine-5-carboxamide], the hepatocyte CLint at 1 μM in data set [4] is 54 µL/min/1e6 cells. In data set [1], this compound showed a microsomal CLint at 1 μM above 290 µL/min/mg. The compound also gave a pKa in data set [2] of 4. Further, on human DGAT2 (hDGAT2), the IC50 stood at 0.019 µM.
Take `CCOc1cccnc1Oc1cncc(-c2ncc(C(=O)N[C@@H]3CNCC[C@@H]3F)cn2)c1` [Example 3, 2-{5-[(3-Ethoxypyridin-2-yl)oxy]pyridin-3-yl}-N-[(3R,4S)-4-fluoropiperidin-3-yl]pyrimidine-5-carboxamide, bis(trifluoroacetate) salt]: the “CLint (+/−Std Dev)” value in the data set on human hepatocytes was <1.9 +/− 0.35 μL/min/10^6 cells. The “CLint (+/−STD Dev)” value in data set [1] is below 7 µL/min/mg. The “Basic pKa” value in data set [2] was 8.1.
Consider `CCOc1cccnc1Oc1cncc(-c2ncc(C(=O)NC3(C)CCS(=O)(=O)C3)cn2)c1` (stereo not shown) [WO2018033832 Ex. 3.1], for which, in the data set with human hepatocytes, the “CLint (+/−Std Dev)” value is given as 9.3 +/− 1.1 μL/min/10^6 cells. Further, in data set [1], the “CLint (+/−STD Dev)” value is 30 µL/min/mg.
In the case of `CCOc1cccnc1Oc1cncc(-c2ncc(C(=O)N[C@H]3CCOC3)cn2)c1` [WO2018033832 Ex. 1, Form 1], the Solubility in data set [5] (FaSSIF pH 6.8) was 69 µg/mL (≈ 169 µM); in data set [5] (PBS, pH 6.8) it was 43 µg/mL (≈ 106 µM); in data set [5] (SGN pH 1.2) it was 78 µg/mL (≈ 191 µM).
